According to patent publication US20260166162A1, “CARBON CHAIN SUBSTANCE FOR REGULATING TRANSMEMBRANE TRANSPORT AND FLUIDITY OF CELL MEMBRANES, AND PREPARATION AND USE THEREOF” (priority 2022, published 2026):

Test system: Epithelial cells
Experiment: Interaction of GFP-labelled complexes with cell membrane of epithelial cells (Example II-52, Table II-30)
Type: cell-based
Conditions: GFP-labelled complex, epithelial cells pretreated 4 hours, n=3
Experimental: The fatty acids were combined with water-soluble small molecules to form a complex, which were labeled with GFP fluorescence to detect cell membrane fluorescence. […] After the cells were stably adhered, the water-soluble fatty acid complexes in the following table were added to the cell culture medium. […] The medium with the drug was pipetted and replaced with normal DMEM medium. […] The green fluorescence intensity was analyzed by imageJ (see Table II-30, n=3).

SMILES | Mean fluorescence intensity (0 Hours after medium replaced) | Mean fluorescence intensity (2 Hours after medium replaced) | Mean fluorescence intensity (4 Hours after medium replaced) | Mean fluorescence intensity (8 Hours after medium replaced) | Mean fluorescence intensity (12 Hours after medium replaced) | Mean fluorescence intensity (24 Hours after medium replaced)
Nc1ncnc2c1ncn2[C@@H]1O[C@H](COP(=O)(O)O)[C@@H](O)[C@H]1O.O=C(O)/C=C/C(=O)O [Adenosine monophosphate-fumaric acid] | 125.1 ± 7.6 | 120.5 ± 7.4 | 113.3 ± 4.6 | 50.0 ± 2.4 | 35.8 ± 4.6 | 31.3 ± 4.4
CCCCCCC=CCCCCCCCC(=O)OCC1OC(O)C(O)C(O)C1O (stereo not drawn) [Glucose-c-9-hexadecenoic acid] | 126.3 ± 2.5 | 113.5 ± 8.2 | 105.5 ± 6.8 | 87.5 ± 6.8 | 64.3 ± 5.1 | 43.5 ± 5.0
CCCCCCCCC/C=C/C(=O)OCC1OC(O)C(O)C(O)C1O (stereo not drawn) [Glucose-t-2-dodecenoic acid] | 129.3 ± 0.6 | 122.0 ± 6.6 | 109.6 ± 5.6 | 63.4 ± 6.0 | 45.7 ± 4.6 | 38.5 ± 8.2
CCCCC/C=C/C(=O)OCC1OC(O)C(O)C(O)C1O (stereo not drawn) [Glucose-t-2-octenoic acid] | 99.4 ± 3.6 | 92.5 ± 4.0 | 61.4 ± 4.2 | 42.3 ± 3.3 | 36.4 ± 4.3 | 32.4 ± 6.6
C=CCCCCCCCCC(=O)NCCCCC(N)C(=O)O (stereo not drawn) [Lys-10-undecenoic acid] | 135.6 ± 2.4 | 130.8 ± 6.7 | 118.2 ± 9.0 | 89.5 ± 4.4 | 58.6 ± 5.7 | 49.6 ± 0.5
CCC=CCC=CCC=CCC=CCC=CCCCC(=O)NCCCCC(N)C(=O)O (stereo not drawn) [Lys-EPA] | 123.3 ± 8.8 | 119.2 ± 3.7 | 109.4 ± 1.7 | 66.4 ± 4.7 | 39.4 ± 5.8 | 32.5 ± 4.5
CC=CC(=O)NCCCCC(N)C(=O)O (stereo not drawn) [Lys-crotonic acid] | 119.3 ± 3.4 | 120.0 ± 6.6 | 98.3 ± 5.5 | 55.9 ± 6.7 | 46.9 ± 3.6 | 40.4 ± 5.3
CCCCCCCC(=O)NCCCCC(N)C(=O)O (stereo not drawn) [Lys-n-octanoic acid] | 103.4 ± 3.1 | 99.3 ± 7.9 | 92.4 ± 7.7 | 45.4 ± 4.7 | 30.4 ± 7.5 | 24.2 ± 8.5
NC(CCCCNC(=O)CCCCCCCCCCCC(=O)O)C(=O)O (stereo not drawn) [Lys-tridecanedioic acid] | 134.4 ± 5.7 | 125.0 ± 6.9 | 113.9 ± 4.2 | 64.3 ± 1.6 | 48.4 ± 6.8 | 42.0 ± 2.6
NC(COC(=O)CCCCCCCCCCCCCCCCCCCCC(=O)O)C(=O)O (stereo not drawn) [Ser-docosanedioic acid] | 114.5 ± 3.3 | 101.4 ± 6.9 | 95.4 ± 5.5 | 74.4 ± 2.4 | 34.5 ± 5.5 | 20.4 ± 4.4
NC(COC(=O)CCCCCCCCCCC(=O)O)C(=O)O (stereo not drawn) [Ser-dodecanedioic acid] | 127.3 ± 3.5 | 126.3 ± 5.2 | 118.3 ± 7.3 | 69.3 ± 8.4 | 59.3 ± 5.5 | 45.3 ± 1.6
NC(COC(=O)CCCCCCCCCCCCCCC(=O)O)C(=O)O (stereo not drawn) [Ser-hexadecanedioic acid] | 119.6 ± 9.4 | 116.2 ± 5.1 | 93.4 ± 5.3 | 63.9 ± 4.1 | 46.0 ± 3.6 | 37.6 ± 6.7
CCCCCCCCCC(=O)OCC(N)C(=O)O (stereo not drawn) [Ser-n-decanoic acid] | 115.4 ± 4.4 | 113.3 ± 6.4 | 108.3 ± 4.4 | 75.5 ± 2.7 | 56.4 ± 2.4 | 39.5 ± 5.7
NC(COC(=O)CCCCCCCCCCCCCCCCC(=O)O)C(=O)O (stereo not drawn) [Ser-octadecanedioic acid] | 136.2 ± 8.5 | 127.3 ± 1.6 | 102.3 ± 4.4 | 76.2 ± 4.6 | 53.9 ± 7.2 | 42.4 ± 5.5
CCC/C=C/C(=O)OCC(N)C(=O)O (stereo not drawn) [Ser-t-2-hexenoic acid] | 104.3 ± 5.2 | 101.3 ± 8.6 | 95.4 ± 4.5 | 39.9 ± 8.4 | 32.5 ± 3.6 | 29.8 ± 5.2
CCCCCCCCC=CCCCCCCCCCCCC(=O)OC(C)C(N)C(=O)O (stereo not drawn) [Thr-erucic acid] | 137.4 ± 5.8 | 121.3 ± 5.5 | 105.2 ± 7.3 | 79.5 ± 4.8 | 48.3 ± 1.2 | 42.4 ± 4.6
CCCCCC=CCC=CCCCCCCCC(=O)OC(C)C(N)C(=O)O (stereo not drawn) [Thr-linoleic acid] | 127.9 ± 6.6 | 122.3 ± 4.7 | 102.0 ± 1.5 | 65.2 ± 5.6 | 45.0 ± 2.5 | 41.5 ± 7.2
CCCC(=O)OC(C)C(N)C(=O)O (stereo not drawn) [Thr-n-butyric acid] | 126.4 ± 4.6 | 121.4 ± 4.6 | 115.0 ± 0.4 | 60.41 ± 3.4 | 34.91 ± 5.6 | 30.67 ± 4.5
CC(OC(=O)CCCCCCC(=O)O)C(N)C(=O)O (stereo not drawn) [Thr-octanedioic acid] | 125.3 ± 4.2 | 122.4 ± 7.5 | 115.4 ± 6.8 | 55.4 ± 7.8 | 45.0 ± 6.3 | 35.3 ± 5.9
CCCCCCCCCCCCCCCC(=O)OC(C)C(N)C(=O)O (stereo not drawn) [Thr-palmitic acid] | 123.3 ± 6.6 | 124.4 ± 7.5 | 119.5 ± 4.1 | 69.2 ± 7.5 | 45.3 ± 5.8 | 42.5 ± 5.7
CCCCCCCCCCCCC(=O)OC(C)C(N)C(=O)O (stereo not drawn) [Thr-tridecaneoic acid] | 106.5 ± 6.4 | 104.3 ± 7.8 | 96.6 ± 2.6 | 53.5 ± 2.6 | 42.5 ± 4.2 | 39.0 ± 4.3
CCCCCCCCCCC(=O)OC(C)C(N)C(=O)O (stereo not drawn) [Thr-undecanoic acid] | 129.5 ± 7.6 | 123.5 ± 3.5 | 118.7 ± 5.7 | 43.6 ± 9.3 | 35.3 ± 4.0 | 24.6 ± 3.8
CC/C=C\C/C=C\C/C=C\C/C=C\C/C=C\C/C=C\CCC(=O)OCC(O)C1OC(=O)C(O)=C1O (stereo not drawn) [Vc-DHA] | 126.3 ± 7.4 | 115.4 ± 5.2 | 109.8 ± 4.9 | 52.0 ± 6.1 | 42.0 ± 3.4 | 37.9 ± 4.6
CCCCCCCCC(=O)OCC(O)C1OC(=O)C(O)=C1O (stereo not drawn) [Vc-nonanoic acid] | 129.5 ± 6.7 | 115.6 ± 6.8 | 93.7 ± 4.2 | 46.3 ± 5.7 | 36.4 ± 5.6 | 33.0 ± 7.0
CCCCCCCCCCCCCC(=O)OCC(O)C1OC(=O)C(O)=C1O (stereo not drawn) [Vc-tetradecanoic acid] | 115.4 ± 4.6 | 100.2 ± 3.7 | 87.2 ± 4.6 | 41.2 ± 9.4 | 33.6 ± 5.2 | 27.5 ± 7.3
O=C(O)CCCCCCCCCC(=O)OCC(O)C1OC(=O)C(O)=C1O (stereo not drawn) [Vc-undecanedioic acid] | 124.4 ± 4.5 | 116.4 ± 0.7 | 112.1 ± 6.3 | 65.3 ± 3.6 | 41.3 ± 9.3 | 35.4 ± 1.6
